The values that follow come from article PMC11742723, “The clinical-stage drug BTZ-043 accumulates in murine tuberculosis lesions and efficiently acts against Mycobacterium tuberculosis” (Nature Communications, 2025).

The data set can be described thus: LCM coupled LC-MS/MS of necrotic granulomas and non-necrotic regions. The class given is in vivo, IL-13tg mice. Conditions: for concentration at 4 h: IL-13tg, mouse, oral. How it is done: Necrotic granulomas and non-necrotic regions were dissected from 2 to 3 γ−irradiated serial lung cryosections (thickness: 12 µm) using a PALM Microbeam (Zeiss, Oberkochen, Germany). Laser-dissected tissues were captured in an ascorbic acid solution (2.5 mg/mL) to prevent the degradation of BTZ-043 and stored at -80 °C. Samples were thawed on ice before drying in the SpeedVac. For reconstitution 80 µL of an 80% ACN/ 20% FA, containing 20 ng/mL reserpine and d4-BTZ-043, were added. The samples were vortexed for 1 min and kept in an ultrasonic bath for 3 min. Subsequently, the samples were centrifuged (10 min, 15,000 × g). The supernatant was transferred into a glass vial and 5 µL was injected into the LC. The LC settings and MS parameters were the same as described for the tissue mimetics (Supplementary Methods). As internal standard d4-BTZ-043 was utilized, with the m/z-transitions 436.0 → 86.0 (cone voltage of 30 V, collision energy of 30 eV, dwell time of 0.2 s) as quantifier. With the expected very low concentrations of the analyte in the LCM material, the deuterated standard was applied to better mimic matrix effects and recovery for this analysis. For calibration curve preparation lung homogenate from drug-naïve mice was added to 80% ACN/20% FA (1%), containing reserpine (as QC) and d4-BTZ-043 (20 ng/mL per sample) to the final solution containing about 0.44 µg tissue/mL, which equals the average weight of the obtained material of the LCM. After centrifugation (5 min, 15,000 × g) the supernatant was spiked with BTZ-043 to yield a calibration curve ranging from 0.00015–0.025 µg/mL.

The mark [1] stands for this setting: LCM flakes from adjacent area (non necrotic), 4h post administration, listed as BTZ.

Values joined by “and” are separate entries in the source; they are usually repeats but may differ in a detail not shown here. Equal entries are not always repeated. Where two headings read alike, the source gives them in different places.

As to `C[C@H]1COC2(CCN(c3nc(=O)c4cc(C(F)(F)F)cc([N+](=O)[O-])c4s3)CC2)O1` [BTZ-043], the concentration at 4 h amounted to 570 ng/mL (TB granulomas laser-dissected from lung cryosections, 250 mg/kg, 4 h after administration, assumed tissue density 1 g/mL, read-out: mean BTZ-043 concentration within TB granulomas); 495 ng/g (lung, laser-dissected necrotic granuloma, 250 mg/kg, LCM flakes from granulome area (granuloma), IL-13tg mouse lung cryosections, 4h post administration, read-out: ng/mg lung tissue, technical replicate 2); 430 ng/g (lung, laser-dissected necrotic granuloma, 250 mg/kg, LCM flakes from granulome area (granuloma), mean of 2 technical replicates, 4h post administration, read-out: ng/mg lung tissue, Mean); 779 ng/g (lung, whole cryosection, 250 mg/kg, whole cryosection from OT207 (QC, internal control), 4h post administration, read-out: ng/mg lung tissue, technical replicate 1); 846 ng/g (lung, whole cryosection, 250 mg/kg, whole cryosection from OT207 (QC, internal control), 4h post administration, read-out: ng/mg lung tissue, technical replicate 2); 810 ng/g (lung, whole cryosection, 250 mg/kg, whole cryosection from OT207 (QC, internal control), mean of 2 technical replicates, 4h post administration, read-out: ng/mg lung tissue, Mean). In addition, the concentration at 4 h (necrotic granulomas laser-dissected from lung cryosections, 250 mg/kg/day, IL-13tg mouse, 250 mg/kg/day 10 days, 4 h after application, read-out: mean BTZ-043 concentration in necrotic granulomas) worked out at 570 ng/g; the concentration at 4 h (non-necrotic regions laser-dissected from lung cryosections, 250 mg/kg/day, IL-13tg mouse, 250 mg/kg/day 10 days, 4 h after application, read-out: mean BTZ-043 concentration in non-necrotic regions) came out at 340 ng/g; the concentration at 4 h (250 mg/kg, LCM flakes from adjacent area (non necrotic), 4h post administration, read-out: ng/mg lung tissue, technical replicate 1) stood at 388 ng/g; the concentration at 4 h (250 mg/kg, LCM flakes from adjacent area (non necrotic), 4h post administration, read-out: ng/mg lung tissue, technical replicate 2) was 371 ng/g; the concentration at 4 h (250 mg/kg, LCM flakes from adjacent area (non necrotic), mean of 2 technical replicates, 4h post administration, read-out: ng/mg lung tissue, Mean) stood at 380 ng/g. Under setting [1], the “ng/mg lung tissue, technical replicate 1” value is 0.303 ng/mg lung tissue and 0.478 ng/mg lung tissue. For the same compound, under setting [1], the “ng/mg lung tissue, technical replicate 2” value was 0.299 ng/mg lung tissue and 0.205 ng/mg lung tissue. Besides, the “ng/mg lung tissue, Mean” value was 0.30 ng/mg lung tissue and 0.34 ng/mg lung tissue (LCM flakes from adjacent area (non necrotic), mean of 2 technical replicates, 4h post administration, listed as BTZ); 0.66 ng/mg lung tissue and 0.65 ng/mg lung tissue (LCM flakes from granulome area (granuloma), mean of 2 technical replicates, 4h post administration, listed as BTZ).
